What all share (test): NCI anticancer screen, dose series, 48 h
Experiment [1] relates to SW-620 colon.
In experiment [2] the test system is HT29 colon.
Experiment [3] has as its system DMS 273 small cell lung.
Experiment [4] relates to NCI-H226 lung.
The test system of experiment [5] is U251 CNS.
Experiment [6] has as its system KM12 colon.
Experiment [7] relates to KM20L2 colon.
Experiment [8] deals with OVCAR-5 ovarian.
For experiment [9], the system named is HS 578T breast.
In experiment [10] the test system is T-47D breast.

Several values for one entry are separate records, joined by “and”; a condition that tells them apart may be missing. Equal values may be shown once.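 How tested: cells in 96-well plates exposed to compound for 48 hours at five concentrations. GI50: concentration for 50% inhibition of growth. At the TGI there is no net growth.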

Take `CN(C)C=Nc1nc(=O)n(C2CCC(CO)O2)cc1F` (centres undefined): the TGI in experiment [1], in [2], in experiment [3], in experiment [4], in experiment [5] and in experiment [6] was greater than 100 µM throughout. The TGI in experiment [7] and in experiment [8] was greater than 100 µM each time.
As for `CCOC(=O)C1=C(C)N(NC(=O)Nc2ccccc2)C2(N)N(NC(=O)Nc3ccccc3)C(C)=C(C(=O)OCC)C12C(=O)OCC` (centres undefined), the TGI in experiment [1], in experiment [2], in experiment [3], in [5], in [6] and in experiment [7] was greater than 100 µM throughout. Also, the TGI in [8] is greater than 100 µM.
As to `CN(C)C(=S)/N=c1\ssc(=S)n1C1CCCCC1`, the TGI in experiment [1] is 28.4 µM; in [2], greater than 100 µM; in experiment [3], greater than 100 µM; in experiment [4], greater than 100 µM; in [5] it was 37.9 µM; in experiment [6], greater than 100 µM. Moreover, the TGI in experiment [7] and in experiment [8] was greater than 100 µM each time.
On to `O=C(NC1C=CCC2C(=O)N(c3ccccc3)C(=O)C12)OCc1ccccc1` (centres undefined), for which the TGI in [1], in [2], in experiment [3], in [4], in experiment [5] and in experiment [6] was greater than 100 µM each time. For the same molecule, the TGI in experiment [7] and in [8] was greater than 100 µM in each case.
Take `Cc1ccc(S(=O)(=O)N2CCC2c2ccccc2)cc1` (centres undefined): the TGI in experiment [1], in experiment [2], in [3], in [4], in [5] and in [6] was greater than 100 µM each time. For the same molecule, the TGI in experiment [7] is greater than 100 µM.
Consider `C[C@@]1(O)CC[C@]2(C)C3CCCC3[C@H]12` (some centres undefined), for which the TGI in [1], in experiment [2], in [3], in [4], in experiment [5] and in [6] was greater than 100 µM throughout. For the same molecule, the TGI in [7] and in [8] was greater than 100 µM in each case.
`O=C1C(C(Nc2ccccc2)c2ccccc2)=C([O-])c2ccccc21.O=C1C(C(Nc2ccccc2)c2ccccc2)=C([O-])c2ccccc21.[Cu+2]` (centres undefined): the GI50 is 42.6 µM in experiment [1]; 33.1 µM in experiment [2]; 26.3 µM in experiment [3]; 22.5 µM in experiment [5]; 32.2 µM in experiment [6]; 52.5 µM in [7]. Further, the TGI in experiment [1] was greater than 100 µM; in [2], greater than 100 µM; in experiment [3], greater than 100 µM; in experiment [5], 65.4 µM; in experiment [6], greater than 100 µM; in [7], greater than 100 µM.
For `O=c1c2cccnc2ncn1CCN1CCCCC1`, the TGI in experiment [1], in [2], in experiment [3], in experiment [4], in [5] and in [6] was greater than 100 µM each time. The TGI in experiment [7] and in experiment [8] was greater than 100 µM each time.
For the molecule `COc1ccc2c(c1)[n+]([O-])c(C(N)=O)c(N)[n+]2[O-]`, the TGI in [1], in [2], in [3], in experiment [4], in [5] and in [6] was greater than 100 µM throughout. In addition, the TGI in experiment [7] and in experiment [8] was greater than 100 µM in each case.
In the case of `[O-][Cl+3]([O-])([O-])[O-].[O]=[Ru]=[O].c1ccc(-c2ccccn2)nc1.c1ccc(-c2ccccn2)nc1`, the GI50 in experiment [1] was greater than 100 µM; in [2], greater than 100 µM; in experiment [3], 22.4 µM; in experiment [4], 56.7 µM; in [5] it was greater than 100 µM; in experiment [6], greater than 100 µM. Besides, the GI50 in experiment [7] and in [8] was greater than 100 µM each time. Also, the TGI in experiment [1], in experiment [2], in experiment [3], in experiment [4], in [5] and in experiment [6] was greater than 100 µM each time. Further, the TGI in experiment [7] and in experiment [8] was greater than 100 µM throughout.
As to `CC(=O)[O-].CC(=O)[O-].O=C(N/N=C/c1cc(Cl)cc(Cl)c1O)c1ccncc1.[Cu+2]`, the TGI in experiment [1], in [2], in experiment [4], in [5], in [6] and in experiment [7] was greater than 100 µM in each case. This molecule registered a TGI in [8] greater than 100 µM.
Regarding `Clc1ccc2cccc3c2c1C1OC3c2ccccc21` (centres undefined), the TGI in experiment [1], in experiment [2], in [3], in experiment [4], in experiment [5] and in experiment [6] was greater than 100 µM in each case. The TGI in experiment [7] and in [8] was greater than 100 µM each time.
For `Cc1[cH-]c(=O)n(-c2ccccc2)n1.[Au+].[Au].c1ccc([PH+](c2ccccc2)c2ccccc2)cc1.c1ccc([PH+](c2ccccc2)c2ccccc2)cc1`, the GI50 was 26.9 µM in experiment [1]; 53.5 µM in [2]; 10.3 µM in experiment [3]; 26.7 µM in [4]; 4.97 µM and 13.1 µM in experiment [5]; 36.7 µM in experiment [6]. The GI50 in experiment [7] is 66.7 µM; in [8] it was greater than 100 µM. The TGI in experiment [1] is 81.4 µM; in experiment [2], greater than 100 µM; in experiment [3] it was 30.7 µM; in experiment [4], 77.8 µM; in [5], 27.3 µM; in experiment [6] it was greater than 100 µM. The TGI in experiment [7] and in experiment [8] was greater than 100 µM throughout.
Consider `N#CCCC[Si]12OCCN(CCO1)CCO2`, for which the TGI in experiment [1], in experiment [2], in experiment [3], in experiment [4], in experiment [5] and in [6] was greater than 100 µM in each case. Also, the TGI in experiment [8] was greater than 100 µM.
`O=C(/C=C/c1c(O)ccc2ccccc12)c1ccc([N+](=O)[O-])cc1`: the TGI is greater than 57.6 µM in experiment [1]; greater than 100 µM in experiment [2]; greater than 100 µM in experiment [3]; greater than 100 µM in experiment [4]; greater than 100 µM in [5]; greater than 100 µM in [6]. Moreover, the TGI in experiment [7] and in [8] was greater than 100 µM in each case.
For the molecule `COc1c(CC(C)=O)ccc2c1C(=O)c1ccc(C=O)c(OC(C)=O)c1C2=O`, the TGI was 33.7 µM in [1]; 37.9 µM in [2]; 24.5 µM in experiment [3]; 36.2 µM in experiment [4]; 36.8 µM in experiment [5]; 39.2 µM in experiment [6]. For the same molecule, the TGI came out at 37.8 µM in [7] and 30.3 µM in experiment [8].
As for `CCOC(=O)C1Sc2ccccc2N=C1C` (centres undefined), the TGI in experiment [1], in experiment [2], in [4], in experiment [5], in experiment [6] and in experiment [7] was greater than 100 µM each time. Moreover, in experiment [8], the TGI is greater than 100 µM.
As to `CN1C(=O)C(=O)N2c3ccc(Cl)cc3C3(c4ccccc4)N=CC12O3` (centres undefined), the TGI in [1] came to 14.5 µM; in experiment [2], 16.1 µM; in [3], 16.4 µM; in experiment [4], 26.8 µM; in experiment [5], 30.1 µM; in [6], 13.7 µM. Further, the TGI in [7] was 24.1 µM; in experiment [8], 20 µM.
Regarding `COc1ccc(/C=C/COC(C)=O)cc1OC`, the TGI in experiment [1], in experiment [2], in [3], in experiment [4], in [5] and in experiment [6] was greater than 100 µM in each case. Besides, the TGI in [7] and in experiment [8] was greater than 100 µM each time.
Turning to `CN(C)CC1CCCC/C1=N/O` (centres undefined), the TGI in experiment [1], in experiment [2], in experiment [3], in [4], in experiment [5] and in experiment [6] was greater than 100 µM each time. Further, the TGI in experiment [7] and in [8] was greater than 100 µM in each case.
Consider `O=c1[nH]c(-c2ccccc2)nc2cc(Cl)ccc12`, for which the TGI in experiment [1], in [2], in experiment [3], in experiment [4], in [5] and in experiment [6] was greater than 100 µM in each case. Further, the TGI in experiment [7] and in experiment [8] was greater than 100 µM in each case.
Consider `Br[Se]c1ccccn1`, for which the TGI in experiment [1] worked out at 51.4 µM; in [9], 40.3 µM; in experiment [2] it was 53.9 µM; in experiment [10] it was 54.1 µM; in [4], 36.8 µM; in experiment [5], 29 µM. The TGI was 31.7 µM in [6] and 35.1 µM in [8].
As for `CCCOc1nc(N)c2cnn(C3CCCCO3)c2n1` (centres undefined), the TGI in experiment [1], in [2], in experiment [3], in experiment [4], in experiment [5] and in experiment [6] was greater than 100 µM each time. Besides, the TGI in experiment [7] and in [8] was greater than 100 µM in each case.

The values above are taken from PubChem BioAssay (NCI).
